Results reported in US20230104315A1, “METHOD OF IDENTIFYING EXTRACHROMOSOMAL DNA SIGNATURES” (Boundless Bio, Inc., priority 2020, published 2023).

Test system: SNU16 cells
Experiment: ecDNA copy number from exome data of SNU16 cells under sequential infigratinib and erlotinib treatment
Format: cell-based, human
Conditions: FIG. 19; for MYC and PDHX ecDNA copy numbers: 1 μM infigratinib up to 12 weeks, followed by 5 μM erlotinib up to four weeks; for EGFR ecDNA copy number: 1 μM infigratinib, followed by 5 μM erlotinib
Procedure: Exomes were prepared using Human Core Exome kit (Twist Bioscience) and sequenced on an Illumina platform with 2×150 paired-end read configuration.
Sequencing data was processed according to genome analysis tool kit (GATK) recommended practices (see gatk.groadinstitute.org/hc/en-us/articles/30035894731-Somatic-short-variant-discovery-SVNs-Indels-). Briefly, raw reads were aligned to the human genome (version GRCh37) using Burrows-Wheeler aligner (BWA) […] exact match (MEM). Small somatic variations were then extracted using Mutect2 (GATK v4.1.9.0) and filtered using FilterMutectCalls.
A culture of SNU16 cells was subjected to a sequence of treatments, starting with infigratinib and followed with erlotinib. Exome data was obtained from these cells at various time points during this experiment: before treatment with infigratinib, two weeks into treatment with 1 μM infigratinib, after 12 weeks of treatment with 1 μM infigratinib, before treatment with erlotinib, two weeks into treatment with 5 μM erlotinib, and four weeks into treatment with 5 μM erlotinib. VCF files produced by GATK Mutect2 were used to calculate rates of substitutions, insertions, and deletions in one million nucleotide-long genomic windows over the entire autosomal genome. Mean coverage depth was estimated by averaging depth for all mutations in that particular genomic window as reported in the VCF file.

Structure (SMILES) | MYC and PDHX ecDNA copy numbers | EGFR ecDNA copy number | FGFR2 ecDNA copy number (during treatment with 1 μM infigratinib)
C#Cc1cccc(Nc2ncnc3cc(OCCOC)c(OCCOC)cc23)c1 [erlotinib] | mostly stable | went back down | 
CCN1CCN(c2ccc(Nc3cc(N(C)C(=O)Nc4c(Cl)c(OC)cc(OC)c4Cl)ncn3)cc2)CC1 [infigratinib] | mostly stable | dramatically increased | moderately decreased
